We go through four molecules from publication PMC6627746, “Pharmacological Properties of the Type 1 Tyramine Receptor in the Diamondback Moth, Plutella xylostella” (International Journal of Molecular Sciences, 2019).

Assay [1] concerns the target T1, PxTAR1 (Plutella xylostella, UniProt A0A4D6I7S9).
T1 construct: gene tar1; full-length ORF, 467 residues, 52266 Da; lentiviral vector pEB-TAR1-3flag-copGFP(T2A)PURO (3flag tag, GFP co-expressed via T2A)
T1 sequence (A0A4D6I7S9 1-467): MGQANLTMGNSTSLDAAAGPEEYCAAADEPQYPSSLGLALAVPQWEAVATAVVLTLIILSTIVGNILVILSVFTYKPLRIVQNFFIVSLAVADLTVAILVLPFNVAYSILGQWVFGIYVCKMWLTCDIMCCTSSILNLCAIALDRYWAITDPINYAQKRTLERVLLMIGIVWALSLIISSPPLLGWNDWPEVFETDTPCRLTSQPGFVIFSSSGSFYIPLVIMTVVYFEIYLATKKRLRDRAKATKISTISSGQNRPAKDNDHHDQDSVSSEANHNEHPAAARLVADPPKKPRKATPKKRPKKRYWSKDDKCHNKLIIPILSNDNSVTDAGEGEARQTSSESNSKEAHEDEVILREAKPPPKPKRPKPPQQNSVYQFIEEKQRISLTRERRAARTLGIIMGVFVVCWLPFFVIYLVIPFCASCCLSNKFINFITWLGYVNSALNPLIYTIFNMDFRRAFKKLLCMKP
Briefly: intracellular Ca2+ assay, Cal-590 AM, confocal imaging, stable HEK-293 line. The assay is classed as cell-based.

Assay [2] has as its target T1, PxTAR1. Briefly: cAMP ELISA (Parameter Assay Kit), TAR1/[…] cells. The assay is classed as cell-based.

The EC50 is the concentration giving half of the maximal effect. Low readings indicate greater potency, high ones weaker potency. As to `CNC=Nc1ccc(C)cc1C` [DPMF, N2-(2,4-Dimethylphenyl)-N1-methyformamidine], the concentration giving a half-maximal response (EC50) at PxTAR1 [1] was determined as 84.5 nM.

With `C=C(C)[C@@H]1CC=C(C)C(=O)C1` [L(-)-carvone], on PxTAR1 [1], it took 1.15 nM to reach a half-maximal effect (EC50).

One may read the IC50 as the midpoint of a concentration-inhibition curve. For the molecule `NC[C@H](O)c1ccc(O)cc1` [octopamine], at PxTAR1 [2], it took 13700 nM to reach half-maximal inhibition (IC50).

For the molecule `NCCc1ccc(O)cc1` [tyramine], at PxTAR1 [2], inhibition was half-maximal at 446 nM (IC50). This molecule displayed an EC50 at PxTAR1 [1] of 13.1 nM.
